Counter-ions that a name gives are not always drawn.

The target in the experiment is ROCK2 (Homo sapiens, UniProt O75116). The experiment in a line: ROCK assay: phosphorylation of FITC peptide substrate, LABCHIP 3000 mobility shift. In kind it is biochemical. To be noted: 5 μM ATP, 1.5 μM peptide substrate; read-out: ROCK2 Activity (ROCK IC50 range). The essentials:
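Rho kinase variant phosphorylates 1.5 μM FITC-AHA-AKRRRLSSLRA-OH with 5 μM ATP in 20 mM HEPES pH 7.5, 20 mM MgCl2, 0.015% Brij-35, 4 mM DTT, DMSO <2%. EDTA stops the reaction, and phospho and non-phospho peptides are resolved by LabChip 3000 mobility shift. IC50 from dose-response curve fit.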

Chain of ROCK2 (O75116 whole entry, species assumed): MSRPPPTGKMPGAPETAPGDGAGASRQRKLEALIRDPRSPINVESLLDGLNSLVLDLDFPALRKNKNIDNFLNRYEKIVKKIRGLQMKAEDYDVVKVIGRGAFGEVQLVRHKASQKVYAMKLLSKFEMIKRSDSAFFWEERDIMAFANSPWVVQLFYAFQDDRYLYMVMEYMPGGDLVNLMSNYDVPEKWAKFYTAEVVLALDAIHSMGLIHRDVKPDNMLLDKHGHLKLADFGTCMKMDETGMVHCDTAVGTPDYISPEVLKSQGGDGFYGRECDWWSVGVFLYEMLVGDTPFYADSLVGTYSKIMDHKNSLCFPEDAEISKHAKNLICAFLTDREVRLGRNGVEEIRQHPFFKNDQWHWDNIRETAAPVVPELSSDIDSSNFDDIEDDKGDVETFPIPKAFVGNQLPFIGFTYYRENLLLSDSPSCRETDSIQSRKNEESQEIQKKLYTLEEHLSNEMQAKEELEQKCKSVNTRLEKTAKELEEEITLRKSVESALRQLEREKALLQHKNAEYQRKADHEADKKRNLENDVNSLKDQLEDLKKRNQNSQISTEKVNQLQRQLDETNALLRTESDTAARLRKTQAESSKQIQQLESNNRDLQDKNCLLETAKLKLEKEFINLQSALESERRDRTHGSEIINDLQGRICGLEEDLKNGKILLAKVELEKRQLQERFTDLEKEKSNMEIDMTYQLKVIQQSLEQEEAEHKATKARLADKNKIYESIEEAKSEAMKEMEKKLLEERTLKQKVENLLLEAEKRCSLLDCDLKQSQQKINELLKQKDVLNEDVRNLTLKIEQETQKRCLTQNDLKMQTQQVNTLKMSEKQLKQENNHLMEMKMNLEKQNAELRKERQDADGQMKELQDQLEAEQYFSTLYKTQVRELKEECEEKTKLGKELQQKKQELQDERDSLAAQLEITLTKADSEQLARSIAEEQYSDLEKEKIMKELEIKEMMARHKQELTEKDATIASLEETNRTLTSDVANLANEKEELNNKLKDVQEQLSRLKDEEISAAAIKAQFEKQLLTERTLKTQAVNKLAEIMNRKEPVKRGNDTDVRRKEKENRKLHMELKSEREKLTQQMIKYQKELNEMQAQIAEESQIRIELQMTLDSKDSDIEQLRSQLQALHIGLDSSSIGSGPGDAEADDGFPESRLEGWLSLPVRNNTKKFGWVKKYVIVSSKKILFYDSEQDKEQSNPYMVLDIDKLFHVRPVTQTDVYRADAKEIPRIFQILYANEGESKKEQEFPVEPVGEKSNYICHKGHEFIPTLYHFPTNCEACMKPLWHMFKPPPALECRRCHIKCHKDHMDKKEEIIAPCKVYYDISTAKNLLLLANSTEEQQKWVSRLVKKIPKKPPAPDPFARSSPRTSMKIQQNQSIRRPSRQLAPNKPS

What is called IC50 is the concentration that gives 50% inhibition. `CC(C)(Oc1ccc2c(C(=O)N[C@H]3CC4(C3)C[C@H](c3n[nH]c(=O)c5ccccc53)C4)cnn2c1)C(=O)O` (stereo partly drawn) [Example 469, 2-methyl-2-((3-(((aR)-6-(4-oxo-3,4-dihydrophthalazin-1-yl)spiro[3.3]heptan-2-yl)carbamoyl)pyrazolo[1,5-a]pyridin-6-yl)oxy)propanoic acid]: the IC50 lay within 15.1 to 100 nM.

As for `[H][C@]1(c2n[nH]c(=O)c3ccccc32)C[C@]2(C[C@@H](NC(=O)c3nc(-c4ccncc4)sc3C)C2)C1` (stereo partly drawn) [Example 365, 5-methyl-N-((aR)-6-(4-oxo-3,4-dihydrophthalazin-1-yl)spiro[3.3]heptan-2-yl)-2-(pyridin-4-yl)thiazole-4-carboxamide], the IC50 was 15.1 to 100 nM.

`COC(=O)N1CC(Oc2ccc3c(C(=O)NC4CC5(C4)CC(c4n[nH]c(=O)c6ccccc46)C5)cnn3c2)C1` (centres unmarked) [Example 136]: the concentration for half-maximal inhibition (IC50) was in the range of 2.01 to 5 nM.

As to `[H][C@]1(c2n[nH]c(=O)c3ccccc32)C[C@]2(C[C@@H](NC(=O)c3c(C)nc4ccccn34)C2)C1` (stereo partly drawn) [Example 299, 2-methyl-N-((aR)-6-(4-oxo-3,4-dihydrophthalazin-1-yl)spiro[3.3]heptan-2-yl)imidazo[1,2-a]pyridine-3-carboxamide], the IC50 is 15.1 to 100 nM.

Regarding `Cc1nc(N2CCOCC2)sc1C(=O)NC1CC2(C1)CC(c1n[nH]c(=O)c3ccccc13)C2` [Example 34, 4-methyl-2-(morpholin-4-yl)-N-[(aR)-6-(4-oxo-3,4-dihydrophthalazin-1-yl)spiro[3.3]heptan-2-yl]-1,3-thiazole-5-carboxamide], the IC50 fell in the range of 15.1 to 100 nM.

Take `O=C(N[C@H]1CC2(C1)C[C@H](c1n[nH]c(=O)c3ccccc31)C2)c1cnc2cc(N3CCOCC3)ccn12` (stereo partly drawn) [Example 470, 7-morpholino-N-((aR)-6-(4-oxo-3,4-dihydrophthalazin-1-yl)spiro[3.3]heptan-2-yl)imidazo[1,2-a]pyridine-3-carboxamide, TFA]: the IC50 was 0.2 to 2 nM.

For `[H][C@]1(c2n[nH]c(=O)c3ccccc32)C[C@]2(C[C@@H](N(CC)C(=O)c3nn(C)c4ccccc34)C2)C1` (stereo partly drawn) [Example 267, N-ethyl-1-methyl-N-((aR)-6-(4-oxo-3,4-dihydrophthalazin-1-yl)spiro[3.3]heptan-2-yl)-1H-indazole-3-carboxamide], the 50% inhibitory concentration (IC50) fell in the range of 100 to 2100 nM.

With `[H][C@]1(c2n[nH]c(=O)c3ccccc32)C[C@@]2(C[C@H](NC(=O)c3cc4ccccc4n3C)C2)C1` (stereo partly drawn) [Example 294, 1-methyl-N-((aR)-6-(4-oxo-3,4-dihydrophthalazin-1-yl)spiro[3.3]heptan-2-yl)-1H-indole-2-carboxamide], the 50% inhibitory concentration (IC50) was in the range of 5.1 to 15 nM.

As to `O=C(NC1CC2(C1)CC(c1n[nH]c(=O)c3ccccc13)C2)c1cnn2cc(OCCN3CCC(F)C3)ccc12` [Example 189, 6-(2-((R)-3-fluoropyrrolidin-1-yl)ethoxy)-N-((aR)-6-(4-oxo-3,4-dihydrophthalazin-1-yl)spiro[3.3]heptan-2-yl)pyrazolo[1,5-a]pyridine-3-carboxamide], the IC50 lay within 0.2 to 2 nM.

On to `O=C(NC1CC2(C1)CC(c1n[nH]c(=O)c3ccccc13)C2)c1cnn2cc(C3CC3)ccc12` (stereo not drawn) [Example 166, 6-cyclopropyl-N-((αR)-6-(4-oxo-3,4-dihydrophthalazin-1-yl)spiro[3.3]heptan-2-yl)pyrazolo[1,5-α]pyridine-3-carboxamide], for which the IC50 was in the range of 0.2 to 2 nM.

Turning to `CC1(C)CN(CCOc2ccc3c(C(=O)NC4CC5(C4)CC(c4n[nH]c(=O)c6ccccc46)C5)cnn3c2)CCO1` [Example 187, 6-(2-(2,2-dimethylmorpholino)ethoxy)-N-((aR)-6-(4-oxo-3,4-dihydrophthalazin-1-yl)spiro[3.3]heptan-2-yl)pyrazolo[1,5-a]pyridine-3-carboxamide], the half-inhibitory concentration (IC50) lay within 0.2 to 2 nM.

For `[H][C@]1(c2n[nH]c(=O)c3ccccc32)C[C@]2(C[C@@H](NC(=O)c3cc4cccc(Cl)c4[nH]3)C2)C1` (stereo partly drawn) [Example 328, 7-chloro-N-((aR)-6-(4-oxo-3,4-dihydrophthalazin-1-yl)spiro[3.3]heptan-2-yl)-1H-indole-2-carboxamide], the IC50 was 2.01 to 5 nM.

As for `CC(C)(O)Cn1nc(C(=O)NC2CC3(C2)CC(c2n[nH]c(=O)c4ccccc24)C3)c2ccc(-c3cnoc3)cc21` (centres unmarked) [Example 161, 1-(2-hydroxy-2-methylpropyl)-6-(isoxazol-4-yl)-N-((αR)-6-(4-oxo-3,4-dihydrophthalazin-1-yl)psiro[3.3]heptan-2-yl)-1H-indazole-3-carboxamide], the concentration for half-maximal inhibition (IC50) was 5.1 to 15 nM.

As to `O=C(NC1CC2(C1)CC(c1n[nH]c(=O)c3ccccc13)C2)c1cnn2cc(CCCN3CCCC3)ccc12` [Example 192, N-((aR)-6-(4-oxo-3,4-dihydrophthalazin-1-yl)spiro[3.3]heptan-2-yl)-6-(3-(pyrrolidin-1-yl)propyl)pyrazolo[1,5-a]pyridine-3-carboxamide], the IC50 lay in the range of 2.01 to 5 nM.

As to `[H][C@]1(c2n[nH]c(=O)c3ccccc32)C[C@]2(C[C@@H](NC(=O)c3cccc(-n4cccn4)c3)C2)C1` (stereo partly drawn) [Example 336, N-((aR)-6-(4-oxo-3,4-dihydrophthalazin-1-yl)spiro[3.3]heptan-2-yl)-3-(1H-pyrazol-1-yl)benzamide], the IC50 lay in the range of 15.1 to 100 nM.

With `O=C(NC1CC2(C1)CC(c1n[nH]c(=O)c3ccccc13)C2)N1CC(CN2CCOCC2)c2ccccc21` [Example 261, 3-(morpholinomethyl)-N-((aR)-6-(4-oxo-3,4-dihydrophthalazin-1-yl)spiro[3.3]heptan-2-yl)indoline-1-carboxamide], the IC50 lay in the range of 15.1 to 100 nM.

In the case of `[H][C@]1(c2n[nH]c(=O)c3ccccc32)C[C@]2(C[C@@H](NC(=O)c3cc4cccc(C)c4[nH]3)C2)C1` (stereo partly drawn) [Example 322, 7-methyl-N-((aR)-6-(4-oxo-3,4-dihydrophthalazin-1-yl)spiro[3.3]heptan-2-yl)-1H-indole-2-carboxamide], the IC50 was in the range of 2.01 to 5 nM.

Take `Cc1sc(NC2CC(F)(F)C2)nc1C(=O)NC1CC2(C1)CC(c1n[nH]c(=O)c3ccccc13)C2` [Example 57, 2-((3,3-difluorocyclobutyl)amino)-5-methyl-N-((aR)-6-(4-oxo-3,4-dihydrophthalazin-1-yl)spiro[3.3]heptan-2-yl)thiazole-4-carboxamide]: the half-inhibitory concentration (IC50) was 5.1 to 15 nM.

Consider `O=C(NC1CC2(C1)CC(c1n[nH]c(=O)c3ccccc13)C2)N1Cc2cccnc2C1` (centres unmarked) [Example 257], for which the concentration for half-maximal inhibition (IC50) lay in the range of 15.1 to 100 nM.

As to `[H][C@]1(c2n[nH]c(=O)c3ccccc32)C[C@]2(C[C@@H](NC(=O)c3ccc(-c4noc(C)n4)cc3)C2)C1` (stereo partly drawn) [Example 360, 4-(5-methyl-1,2,4-oxadiazol-3-yl)-N-((aR)-6-(4-oxo-3,4-dihydrophthalazin-1-yl)spiro[3.3]heptan-2-yl)benzamide], the IC50 is 15.1 to 100 nM.

With `O=C(NC1CC2(C1)CC(c1n[nH]c(=O)c3ccccc13)C2)c1cnn2cc(-c3cnn(CC(O)C(F)(F)F)c3)ccc12` [Example 171, N-((αR)-6-(4-oxo-3,4-dihydrophthalazin-1-yl)spiro[3.3]heptan-2-yl)-6-(1-((S)-3,3,3-trifluoro-2-hydroxypropyl)-1H-pyrazol-4-yl)pyrazolo[1,5-α]pyridine-3-carboxamide], the IC50 was 2.01 to 5 nM.

As for `CC1(C)CN(CCOc2ccc3c(C(=O)NC4CC5(C4)CC(c4n[nH]c(=O)c6ccccc46)C5)cnn3c2)CCC1O` [Example 184, 6-(2-(4-hydroxy-3,3-dimethylpiperidin-1-yl)ethoxy)-N-((aR)-6-(4-oxo-3,4-dihydrophthalazin-1-yl)spiro[3.3]heptan-2-yl)pyrazolo[1,5-a]pyridine-3-carboxamide], the half-inhibitory concentration (IC50) lay within 0.2 to 2 nM.

On to `[H][C@]1(c2n[nH]c(=O)c3ccccc32)C[C@]2(C[C@@H](NC(=O)c3ccc(C(F)(F)F)nc3)C2)C1` (stereo partly drawn) [Example 342, N-((aR)-6-(4-oxo-3,4-dihydrophthalazin-1-yl)spiro[3.3]heptan-2-yl)-6-(trifluoromethyl) nicotinamide], for which the IC50 was 100 to 2100 nM.

With `O=C(NC1CC2(C1)CC(c1n[nH]c(=O)c3ccccc13)C2)N1CCc2cc(CCC(F)(F)F)ccc21` [Example 245, N-((aR)-6-(4-oxo-3,4-dihydrophthalazin-1-yl)spiro[3.3]heptan-2-yl)-5-(3,3,3-trifluoropropyl)indoline-1-carboxamide], the IC50 is 5.1 to 15 nM.

Consider `[H][C@]1(c2n[nH]c(=O)c3ccccc32)C[C@]2(C[C@@H](NC(=O)c3ccc(C#N)c(C)n3)C2)C1` (stereo partly drawn) [Example 371, 5-cyano-6-methyl-N-((aR)-6-(4-oxo-3,4-dihydrophthalazin-1-yl)spiro[3.3]heptan-2-yl)picolinamide], for which the IC50 was in the range of 15.1 to 100 nM.

As for `[H][C@]1(c2n[nH]c(=O)c3ccccc32)C[C@]2(C[C@@H](NC(=O)c3cccc(-c4cc[nH]n4)c3)C2)C1` (stereo partly drawn) [Example 361, N-((aR)-6-(4-oxo-3,4-dihydrophthalazin-1-yl)spiro[3.3]heptan-2-yl)-3-(1H-pyrazol-3-yl)benzamide], the IC50 was in the range of 5.1 to 15 nM.

For the compound `Cc1c(C(=O)NC2CC3(C2)CC(c2n[nH]c(=O)c4ccccc24)C3)cnn1-c1ccccc1` (centres unmarked) [Example 13, 5-methyl-N-[6-(4-oxo-3,4-dihydrophthalazin-1-yl)spiro[3.3]heptan-2-yl]-1-phenyl-1H-pyrazole-4-carboxamide], the IC50 is 2.01 to 5 nM.

Consider `[H][C@]1(c2n[nH]c(=O)c3ccccc32)C[C@]2(C[C@@H](NC(=O)c3cc4cc(Cl)ccc4n3C)C2)C1` (stereo partly drawn) [Example 306, 5-chloro-1-methyl-N-((aR)-6-(4-oxo-3,4-dihydrophthalazin-1-yl)spiro[3.3]heptan-2-yl)-1H-indole-2-carboxamide], for which the IC50 fell in the range of 5.1 to 15 nM.

On to `O=C(N[C@H]1CC2(C1)C[C@H](c1n[nH]c(=O)c3ccccc31)C2)c1cnn2cc(O[C@@H]3CCOC3)ccc12` (stereo partly drawn) [Example 122, N-((aR)-6-(4-oxo-3,4-dihydrophthalazin-1-yl)spiro[3.3]heptan-2-yl)-6-((tetrahydrofuran-3-yl)oxy)pyrazolo[1,5-a]pyridine-3-carboxamide], for which the half-inhibitory concentration (IC50) was 0.2 to 2 nM.

The record behind these values is patent US9902702B2, “Spirocycloheptanes as inhibitors of rock” (BRISTOL-MYERS SQUIBB COMPANY, priority 2014, dated 2018).
